Consider 12 molecules from ChEMBL document CHEMBL1909524, “Discovery of a novel series of cyclic urea as potent CCR5 antagonists” (Bioorg Med Chem Lett, 2011).

The subject of data set [1] is Human immunodeficiency virus 1. The experiment in a line: Antiviral activity against HIV1 Ba-L infected in human HOS cells assessed as reduction of viral replication after 4 days by Steady-Glo luciferase assay. The format is functional, organism-based. Conditions: Human immunodeficiency virus 1, Ba-L, 96 h.
Data set [2] has as its system Human immunodeficiency virus 1. The data set is described as follows: Antiviral activity against HIV1 Ba-L infected in human PBL cells assessed as reduction of viral replication after 4 days by Steady-Glo luciferase assay. Conditions: Human immunodeficiency virus 1, Ba-L, 96 h. The format is functional, organism-based.
A short description of data set [3]: Stability of the compound in fasted stimulated intestinal fluid assessed as half life at pH 6. The format is physicochemical. The settings on record: fasted simulated intestinal fluid.
For a further data set, the system named is HOS. The experiment in a line: Cytotoxicity against human HOS cells assessed as cell death up to 1 uM by celltiter glo assay. The format is cell-based.
A further data set deals with PBL. The experiment in a line: Cytotoxicity against human PBL cells assessed as cell death up to 1 uM by celltiter glo assay. The data set is classed as cell-based.
Data set [4] is described as follows: Stability of the compound in fasted stimulated intestinal fluid within 1000 hrs. The format is physicochemical. The settings on record: simulated gi fluid.
Data set [5] in a line: Clearance in rat. The format is ADME, organism-based. The settings on record: in vivo.
Data set [6] in a line: Half life in dog at 1 mg/kg, iv. On the set-up: dose 1 mg/kg, route intravenous. Conditions: in vivo. The format is ADME, organism-based, Canis lupus familiaris.
Data set [7] in a line: Clearance in dog at 1 mg/kg, po. The data set is classed as ADME, organism-based, Canis lupus familiaris. On the set-up: dose 1 mg/kg, route oral. The settings on record: in vivo.
Data set [8] can be described thus: Oral bioavailability in dog at 1 mg/kg. The data set is classed as ADME, organism-based, Canis lupus familiaris. Conditions: in vivo.
Data set [9] can be described thus: Half life in monkey at 1 mg/kg, iv. The data set is classed as ADME, organism-based, Macaca mulatta. More on the design: dose 1 mg/kg, route intravenous. The settings on record: rhesus monkey, in vivo.
Data set [10] can be described thus: Clearance in monkey at 1 mg/kg, po. The format is ADME, organism-based, Macaca mulatta. On the set-up: dose 1 mg/kg, route oral. Conditions: rhesus monkey, in vivo.
A short description of data set [11]: Oral bioavailability in monkey at 1 mg/kg. Conditions: rhesus monkey, in vivo. The format is ADME, organism-based, Macaca mulatta.
The nature of data set [12]: Metabolic stability of the compound in fasted stimulated intestinal fluid. The data set is classed as physicochemical. Conditions: simulated gi fluid.

For `Cc1nc(Oc2ccc(NS(C)(=O)=O)cc2)ccc1CN1CCC(N(C(=O)Nc2cc(C(N)=O)c(F)cc2F)c2cccc(F)c2)CC1`, the IC50 in data set [1] stood at 2 nM; in data set [2], 0.6 nM. Besides, the half-life in [3] was 334 h.
As to `Cc1nc(Oc2ccc(S(C)(=O)=O)cc2)ccc1CN1CCC(N2C(=O)N(c3cc(C(N)=O)c(F)cc3F)CC2c2ccccc2)CC1` (racemic), the values for the IC50 in data set [1] and in data set [2] were 12 nM and 2 nM, respectively.
Regarding `Cc1cc(S(C)(=O)=O)ccc1Oc1ccc(CN2CCC(N3C(=O)N(c4cc(C(N)=O)c(F)cc4F)C[C@H]3c3ccccc3)CC2)c(C)n1`, in [1], the IC50 is 5.4 nM. In addition, the Activity result in the data set on HOS and in the data set with PBL was “Non-toxic” throughout.
For `Cc1nc(Oc2ccc(NS(C)(=O)=O)cc2)ccc1CN1CCC(N(C(=O)Oc2ccc(F)c(C(N)=O)c2)c2cccc(F)c2)CC1`, the IC50 in data set [1] was determined as 29 nM.
On to `Cc1nc(Oc2ccc(S(=O)(=O)C(C)C)cc2)ccc1CN1CCC(N2C(=O)N(c3cc(C(N)=O)c(F)cc3F)C[C@H]2c2ccccc2)CC1`, for which the IC50 was 3.6 nM in data set [1] and 1.1 nM in data set [2]. Moreover, the Activity result in the data set with HOS and in the data set with PBL was “Non-toxic” each time.
For `CC(C)c1nc(Oc2ccc(S(C)(=O)=O)cc2)ccc1CN1CCC(N2C(=O)N(c3cc(C(N)=O)c(F)cc3F)C[C@H]2c2ccccc2)CC1`, the results for the IC50 in data set [1] and in data set [2] were 2.6 nM and 1.6 nM, respectively. Further, the Activity result in the data set with HOS and in the data set on PBL was “Non-toxic” throughout.
Take `Cc1nc(Oc2ccc(CC(=O)NC(C)C)cc2)ccc1CN1CCC(N2C(=O)N(c3cc(C(N)=O)c(F)cc3F)C[C@H]2c2ccccc2)CC1`: the IC50 in [1] stood at 3.3 nM; in [2], 0.5 nM. Further, the Activity entry in the data set with HOS and with PBL was “Non-toxic” each time.
With `Cc1nc(Oc2ccc(S(C)(=O)=O)cc2F)ccc1CN1CCC(N2C(=O)N(c3cc(C(N)=O)c(F)cc3F)C[C@H]2c2ccccc2)CC1`, the IC50 amounted to 5.2 nM in [1] and 0.6 nM in data set [2]. Further, the Activity entry with HOS and with PBL was “Non-toxic” each time.
`Cc1nc(Oc2ccc(S(C)(=O)=O)cc2)ccc1CN1CCC(N2C(=O)N(c3cc(C(N)=O)c(F)cc3F)C[C@H]2c2ccccc2)CC1`: the values for the IC50 in data set [1] and in [2] were 4 nM and 1 nM, respectively. The Activity entry in the data set with HOS and with PBL was “Non-toxic” throughout. In addition, in [4], the Stability result is listed as “Stable”. Besides, the clearance in data set [5] came out at 27 mL/min/kg. The half-life in data set [6] is 6.9 h; in data set [9] it was 1.4 h. Besides, the apparent clearance (CL/F) was 2.1 mL/min/kg in data set [7] and 20.2 mL/min/kg in data set [10]. Besides, the values for the bioavailability in data set [8] and in data set [11] were 76% and 110%, respectively.
`Cc1nc(Oc2ccc(NS(C)(=O)=O)cc2)ccc1CN1CCC(N2C(=O)N(c3cc(C(N)=O)c(F)cc3F)C(=O)C2c2ccccc2)CC1` (racemic): the IC50 in data set [1] was determined as 14 nM. Moreover, the Stability result in data set [12] is “Unstable”.
Take `Cc1nc(Oc2ccc(S(C)(=O)=O)cc2)ccc1CN1CCC(N2C(=O)N(c3cc(C(N)=O)c(F)cc3F)C[C@@H]2c2ccccc2)CC1`: the IC50 in data set [1] turned out to be 213 nM; in data set [2], 289 nM.
With `Cc1nc(Oc2ccc(NS(C)(=O)=O)cc2)ccc1CN1CCC(N(Cc2ccccc2F)C(=O)Nc2cc(C(N)=O)c(F)cc2F)CC1`, the values for the IC50 in data set [1] and in data set [2] were 1.7 nM and 0.9 nM, respectively.

As a reminder, the IC50 is the concentration needed to halve the response being measured. In general, half-life refers to how long it takes for the measured level to halve. What is called clearance is the volume of plasma or blood freed of the substance per unit of time. As a reminder, the CL/F is clearance divided by bioavailability, as obtained after extravascular dosing.
